Measurements published in PMC10451668, “Natural Acetogenins, Chatenaytrienins-1, -2, -3 and -4, Mitochondrial Potential Uncouplers and Autophagy Inducers—Promising Anticancer Agents” (Antioxidants, 2023).

Assays:
HL60 = test: Cytotoxicity assay (7-AAD viability, flow cytometry); format: cell-based, human; conditions: ± standard error of the mean, 95% CI in parenthesis
From the text: (§1) Cells, including Jurkat E6.1 (human leukemic T cell lymphoblasts, catalogue no. 88042803), K562 (human chronic myelogenous leukemia cells, catalogue no. 89121407), U937 (human histiocytic lymphoma cells, catalogue no. 85011440), HL60 (human promyelocytic leukemia cells, catalog no. 98070106), HEK293 (human embryonic kidney cells with adenovirus, catalog no. 85120602), and human lung fibroblasts Ce (catalogue no. 90011883), were purchased from the European Collection of Authenticated Cell Cultures (UK Health Security Agency) and cultured according to standard protocols using sterile techniques. […] Cells were maintained in RPMI 1640 (Jurkat, K562, U937, and HL60) and DME M (fibroblast and HEK293) (Gibco) supplemented with […] glutamine, 10% FBS (Sigma), and 100 units/mL penicillin-streptomycin (Sigma). All types of cells were grown under an atmosphere of 5% CO2 at 37 °C. The cells were subcultured at 2–3-day intervals. Cells were then seeded in 24-well plates at 5 × 10^4 cells per well and incubated overnight. Jurkat, K562, U937, HL60, HEK293, and fibroblast cells were subcultured at 2-day intervals with a seeding density of 1 × 10^5 cells per well in 24-well plates in RPMI with 10% FBS.
(§2) Viability (live/dead) assessment was performed by staining cells with 7-AAD (7-aminoactinomycin D; Biolegend). After treatment, cells were harvested, washed 1–2 times with phosphate-buffered saline (PBS), and centrifuged at 400× g for 5 min. Cell pellets were resuspended in 200 µL of flow cytometry staining buffer (PBS without Ca^2+ and Mg^2+, 2.5% FBS) and stained with […] of 7-AAD staining solution for 15 min at room temperature in the dark. Samples were assessed using the NovoCyte Penteon Flow Cytometer System (Agilent, 5301 Stevens Creek Blvd., Santa Clara, CA, USA). Detection of 7-AAD emission was collected through a 675/30 nm filter in the FL4 channel.

Hek293 = test: as above; format: cell-based, human; conditions: Hek293, conditionally normal line; ± standard error of the mean, 95% CI in parenthesis
From the text: as §1, §2

Jurkat = test: as above; format: cell-based, human; conditions: ± standard error of the mean, 95% CI in parenthesis
From the text: as §1, §2

K562 = test: as above; format: cell-based, human; conditions: ± standard error of the mean, 95% CI in parenthesis
From the text: as §1, §2

U937 = test: as above; format: cell-based, human; conditions: ± standard error of the mean, 95% CI in parenthesis
From the text: as §1, §2

[1] = test system: Fibroblasts (PCS-201-018); test: as above; format: cell-based, human; conditions: normal fibroblasts; ± standard error of the mean, 95% CI in parenthesis
Jurkat cells [2] = test: Detection of mitodamage: mitochondrial membrane potential and apoptosis (MitoSense Red, annexin V, 7-AAD); format: cell-based, human; conditions: compound at CC50, 4 h; for cells in late apoptosis (stained with 7-AAD): Jurkat; for Jurkat tumor cells with the Δψ dissipation phenomenon: MitoSense Red
From the text: The use of reagents MitoSense Red, annexin V, and 7-AAD in the Millipore FlowCellect™ MitoDamage Kit allowed us to gain information on early, mid, and late apoptosis with one simple assay. […] After this time, the cells were dissociated using an accutase solution, stained, and analyzed using the NovoCyte Penteon Flow Cytometer System (Agilent, 5301 Stevens Creek Blvd., Santa Clara, CA, USA), according to the manufacturer’s protocols for the FlowCellect™ MitoDamage Kit and FlowCellect™ Oxidative Stress Characterization Kit (Merck).
Detection of mitochondrial potential dissipation using MitoSense Red, annexin V, and 7-AAD provided a simultaneous measurement of three important parameters of the cell state within the same cell sample: the state of the mitochondrial potential (Δψ), detected by the membrane-penetrating MitoSense Red dye; the expression of phosphatidylserine on the cell surface of apoptotic cells, assessed by the binding of annexin V to externalized phosphatidylserine; and the binding of 7-AAD to DNA in cells in the late stages of apoptosis. Multiparametric evaluation of these indicators of cell viability made it possible to determine the correlation and relationship between oxidation dissipation and phosphorylation with apoptosis.

Jurkat tumor cell line = test: Assessment of cytochrome c loss (FlowCellect Cytochrome c Kit); format: cell-based, human; conditions: compound at CC50, incubation 3 h, anti-cytochrome c-FITC
Protocol: Quantification of cytochrome c release from mitochondria in apoptotic cells was presented to detect the mitochondrial pathway of apoptosis in cells using flow cytometry with the FlowCellect™ Cytochrome c Kit (FCCH100110). For this, cells were treated with FITC-conjugated antibodies against cytochrome c and control anti-IgG1-FITC, together with the use of an optimized fixation procedure, permeabilization, and blocking buffer (Luminex®, USA). […] Jurkat cells were incubated for 4 h with the synthesized substances at a concentration corresponding to their 24-h CC50 in a culture plate and assessed using the NovoCyte Penteon Flow Cytometer System (Agilent, 5301 Stevens Creek Blvd., Santa Clara, CA, USA). The obtained data were processed using NovoExpress® software (ACEA).

Jurkat cells [3] = test: Oxidative stress and early apoptosis (MitoSOX Red and annexin V, MitoStress Kit); format: cell-based, human
From the text: Changes in the mitochondrial membrane potential (ΔΨ) in Jurkat cells induced by treatment with the synthesized compounds were detected using MitoSOX Red, a positively charged probe that accumulates rapidly in mitochondria and as such can be used to detect superoxide/ROS production within mitochondria using fluorometry, microscopy, or flow cytometry. Live cells induced a low level of MitoSOX Red fluorescence, while cells with scattered mitochondrial membrane potential caused much higher MitoSOX Red fluorescence. Annexin V is a dye commonly used to detect early signs of apoptosis. […] Thus, using two different dyes, MitoSOX Red and annexin V (CF488A), in the FlowCellect™ MitoStress Kit (FCCH100109), we analyzed the mitochondrial membrane potential dissipation and associated apoptosis in Jurkat cells in response to the synthesized chatenaytrienins.
Therefore, simultaneous detection of mitochondrial superoxide generation (detected by MitoSOX Red membrane-penetrating dye) and expression of phosphatidylserine on the cell surface of apoptotic cells (assessed by binding of annexin V) in the same cell sample provides an accurate evaluation of the ability of the test compound to initiate oxidative stress in cell culture and induce apoptosis.

Jurkat cells [4] = test: Assessment of autophagy (anti-LC3/FITC, flow cytometry); format: cell-based, human; conditions: 0.5 CC50, 48 h
From the text: Autophagy is involved in various physiological processes and its changes are associated with the pathogenesis of diseases such as neurodegenerative diseases, cardiovascular complications, cancer, and infectious diseases, as well as with physiological processes such as innate and specific immunity, pathogen clearance, lymphocyte selection, antigen presentation, and production of immunoglobulins. Therefore, the determination of LC3 protein inside autophagosomes without the cytosolic form of LC3-I at the stage of selective cell permeability was measured using flow cytometry. Thus, using the FlowCellect™ LC3-GFP Reporter Autophagy Assay Kit (FCCH100170 and FCCH100181), flow cytometry allowed for a rapid assay that could be combined with other phenotypic and functional markers to characterize different cell populations.
Canonical autophagy is associated with the conversion of LC3 protein (an autophagosome marker) from the cytoplasmic form of LC3I to the lipid-bound form of LC3II, which is associated with the membranes of maturing autophagosomes. The autophagy process can be conveniently classified into several stages. First, induction and translocation of the cytoplasmic LC3 protein occur due to the influence of external stimuli (adverse environmental influences)—the process is initiated by external/internal stimuli (for example, nutrient depletion or hypoxia). Then, the formation of autophagosomes begins, which are double-membrane vesicles that include the LC3 protein. This protein regulates the fusion of autophagosomes and lysosomes. It exists in two fractions—cytoplasmic LC3-I and LC3-II, isolated in the autophagosomal membrane. The LC3-II protein fraction was specified in our work, as its detection is a reliable indicator of the processes of autophagy in the cell.

T24 bladder cancer cells = test system: T24 bladder cancer cells; design: method as in PMID 16154156; conditions: cited from earlier work
Jurkat cell lysates = test: Multiplex analysis of signaling, genotoxicity and early apoptosis proteins (MILLIPLEX MAP, Luminex); format: cell-based, human
Protocol: Multiplex analysis was performed according to a previously published method. MILLIPLEX®MAP technology is used to determine the total protein or phosphorylated protein levels of various biological analytes, such as kinases or signaling proteins, including CREB, ERK/MAP, p70 S6, p21, p38, PI3K/AKT/mTOR, JNK (A), p53, MDM2, Bcl-2/Bax, STAT3 and STAT5, Nf-kB, Caspase 3-8-9, JNK, ATM, Chk1, Chk2, and H2AX, in cell lysates using the Luminex® system ((MILLIPLEX Multi-Pathway Magnetic Bead 9-Plex—Cell Signaling Multiplex Assay kit, Merk, Germany). This MILLIPLEX®MAP technology provides an alternative to Western blotting and immunoprecipitation and has several important advantages, such as more accurate measurement of small amounts of protein and the elimination of analyte loss during sample preparation. The multiplex immunoassay (MILLIPLEX 48-680MAG; Merck Millipore, Germany) was performed in Millipore 96-well plates to detect changes in concentrations of phosphorylated and unphosphorylated proteins p53, MDM2, p21, p38, PI3K/AKT/mTOR, Bcl-2/Bax, STAT3 and STAT5, Nf-kB, Caspase 3 -8-9, CREB, ERK/MAP, p70 S6, JNK, ATM, Chk1, Chk2, and H2AX in Jurkat cell lysates.
The levels of phosphorylated and non-phosphorylated proteins were analyzed using MILLIPLEX® map technology to study the analytes in the same sample within a fairly short time. Various deviations in protein concentration due to external factors or detection errors that could affect the results of the experiment were thereby reduced to zero.
The expression of p53, MDM2, p21, p38, PI3K/AKT/mTOR, Bcl-2/Bax, STAT3 and STAT5, Nf-kB, Caspase 3-8-9, CREB, ERK/MAP, p70 S6, JNK, ATM, Chk1, Chk2, and H2AX proteins in lysate samples of Jurkat tumor cells were studied using Luminex technology with the MILLIPLEX® MAP 9-Plex Multi-Pathway 9-plex Magnetic Bead Kit. This bead-based assay involved color-coded fluorescent particles pre-coated with specific antibodies targeting 9 major kinases in signaling pathways.

Compound | CC50 (HL60) [nM] | CC50 (Hek293) [nM] | CC50 (Jurkat) [nM] | CC50 (K562) [nM] | CC50 (U937) [nM] | CC50 [1] [nM] | cells in late apoptosis (stained with 7-AAD) (Jurkat cells [2]) [%] | Jurkat tumor cells with the Δψ dissipation phenomenon (Jurkat cells [2]) [%] | cells with cytochrome c released into the cytoplasm (Negative gate) (Jurkat tumor cell line) [%] | cells with autophagy (gate M3-2) (Jurkat cells [4]) [%] | also measured
chatenaytrienin-4 [compound 4] | 190 ± 20 | 530 ± 10 | 160 ± 10 | 130 ± 40 | 130 ± 50 | 980 ± 40 | 1.88 | 53.51 | 42.10 | 56.09 | cells demonstrating oxidative stress along with the marker of early apoptosis, annexin (Jurkat cells [3]; compound at CC50, 4 h, MitoSOX Red and annexin V): 26.8%
CCCCCC[C@H](O)CCC[C@H](O)[C@H]1CC[C@H]([C@H]2CC[C@H]([C@H](O)CCCCCCCCCCCCC3=C[C@H](C)OC3=O)O2)O1 [squamocin] | – | – | – | – | – | – | – | – | – | – | effect on cell cycle (T24 bladder cancer cells): blocked cells in the G1 phase
chatenaytrienin-3 [compound 3] | 140 ± 40 | 780 ± 40 | 150 ± 40 | 90 ± 10 | 180 ± 20 | 830 ± 50 | 17.01 | 62.42 | 41.99 | 91.50 | intact (live) cells in the sample (Jurkat cells [3]; compound at CC50, 4 h): 9.9%
CN[C@@H]1C[C@H]2O[C@@](C)([C@@H]1OC)n1c3ccccc3c3c4c(c5c6ccccc6n2c5c31)C(=O)NC4 [staurosporine, reference compound] | – | – | – | – | – | – | 2.48 | – | 80.23 | – | –
CCCCCCCCCCCC/C=C\CC/C=C\CCCCCCCCCCCCC1=C[C@H](C)OC1=O [muricadienin, reference compound] | – | – | – | – | – | – | – | – | – | – | expression of caspase-8 (Jurkat cell lysates; 6 h and 12 h): did not significantly affect; concentration of p53 (Jurkat cell lysates; after 12 h of incubation, versus control): significantly increased; levels of all types of kinase proteins (CREB, JNK, NFkB, p38, ERK1/2, Akt, p70S6K, STAT3, STAT5) (Jurkat cell lysates; compound at CC50, 4 h, MFI versus intact cells): most pronouncedly reduced; cleaved caspase-9 (Jurkat cell lysates; especially after 12 h, level exceeded control): promoted the accumulation; level of BAD protein (Jurkat cell lysates; first 6 h, within 12 h began to increase again, not reaching control): decreased
CCCCCC[C@H]1C(=O)O[C@H](C)[C@H](NC(=O)c2cccc(NC=O)c2O)C(=O)O[C@@H](C)[C@@H]1OC(=O)CC(C)C [antimycin, reference compound] | – | – | – | – | – | – | – | – | – | – | intact (live) cells in the sample (Jurkat cells [3]; antimycin 100 µM, 4 h): 12.65%
